Experimental data reported in patent US8921318B2, “Application of initial doses of LHRH analogues and maintenance doses of LHRH antagonists for the treatment of hormone-dependent cancers and corresponding pharmaceutical kits” (Aeterna Zentaris GmbH, priority 2006, dated 2014).

Legend:
[1] = system: Prostate Specific Antigen (PSA); assay: PSA levels in prostate cancer patients under initial dose / maintenance dose treatment; assay type: in vivo, human; conditions: for PSA levels decrease during first period: prostate cancer patients
Description: (§1) 130 mg ozarelix is given as a single monthly initial dose per i.m. injection every 4 weeks to patients suffering from prostate cancer for a first period of 3 months. […] Subsequently, patients are treated with single monthly maintenance doses of 30 mg ozarelix given per i.m. injection over a period of 6 months. […] The treatment scheme is then repeated continuously (chronic treatment).
(§2) 200 mg ozarelix is given as a single initial dose per i.m. injection once every 3 months to patients suffering from prostate cancer for a first period of 3 to 6 months. […] Subsequently, patients are treated with single monthly maintenance doses of 40 mg ozarelix given per i.m. injection over a period of 6 months. […] The treatment scheme is then repeated continuously (chronic treatment).
as §1, with “3.75” for “130”, “leuprorelin (leuprolide) are” for “ozarelix is”, “6” for “3”, “20” for “30”, “9” for “6”
as §2, with “11.25” for “200”, “leuprorelin (leuprolide) are” for “ozarelix is”, “three” for “3”, “3” for “3 to 6”, “50” for “40”, “3” for “6”

testosterone levels = assay: Testosterone levels in prostate cancer patients under initial dose / maintenance dose treatment; assay type: in vivo, human; conditions: for testosterone levels during first period: prostate cancer patients
Description: as §1, §2
as §1, with “3.75” for “130”, “leuprorelin (leuprolide) are” for “ozarelix is”, “6” for “3”, “20” for “30”, “9” for “6”
as §2, with “11.25” for “200”, “leuprorelin (leuprolide) are” for “ozarelix is”, “three” for “3”, “3” for “3 to 6”, “50” for “40”, “3” for “6”

[2] = Example 3: 3.75 mg leuprorelin i.m. single monthly initial dose every 4 weeks, first period 6 months
[3] = Example 4: 11.25 mg leuprorelin i.m. single initial dose once every three months, first period 3 months
[4] = Example 1: 130 mg ozarelix i.m. single monthly initial dose every 4 weeks, first period 3 months
[5] = Example 1: monthly maintenance doses of 30 mg ozarelix i.m. over 6 months, after 130 mg ozarelix initial doses
[6] = Example 2: 200 mg ozarelix i.m. single initial dose once every 3 months, first period 3 to 6 months
[7] = Example 2: monthly maintenance doses of 40 mg ozarelix i.m. over 6 months, after 200 mg ozarelix initial doses
[8] = Example 3: monthly maintenance doses of 20 mg ozarelix i.m. over 9 months, after 3.75 mg leuprorelin initial doses
[9] = Example 4: monthly maintenance doses of 50 mg ozarelix i.m. over 3 months, after 11.25 mg leuprorelin initial dose

## CCNC(=O)[C@@H]1CCCN1C(=O)[C@H](CCCNC(=N)N)NC(=O)[C@H](CC(C)C)NC(=O)[C@@H](CC(C)C)NC(=O)[C@H](Cc1ccc(O)cc1)NC(=O)[C@H](CO)NC(=O)[C@H](Cc1c[nH]c2ccccc12)NC(=O)[C@H](Cc1c[nH]cn1)NC(=O)[C@@H]1CCC(=O)N1 [leuprorelin]
[1]; [2]
  PSA levels decrease during first period: up to 95%
[1]; [3]
  PSA levels decrease during first period: up to 95%
Testosterone levels; [2]
  testosterone levels during first period: quickly reach castration level
Testosterone levels; [3]
  testosterone levels during first period: quickly reach castration level

## ozarelix
[1]; [4]
  PSA levels decrease during first period: up to 95%
[1]; [5]
  PSA levels during second period: remain stably low until the end of the second period
[1]; [6]
  PSA levels decrease during first period: up to 95%
[1]; [7]
  PSA levels during second period: remain stably low until the end of the second period
[1]; [8]
  PSA levels during second period: remain stably low until the end of the second period
[1]; [9]
  PSA levels during second period: remain stably low until the end of the second period
Testosterone levels; [4]
  testosterone levels during first period: quickly reach castration level
Testosterone levels; [5]
  testosterone levels during second period: above 0.5 ng/mL
Testosterone levels; [6]
  testosterone levels during first period: quickly reach castration level
Testosterone levels; [7]
  testosterone levels during second period: above 0.5 ng/mL
Testosterone levels; [8]
  testosterone levels during second period: above 0.5 ng/mL
Testosterone levels; [9]
  testosterone levels during second period: above 0.5 ng/mL
